Broadly, the melting point is the temperature, or range, at which the solid turns liquid.

Compound `CC(C)(C)OC(=O)NN[C@@H]1c2cc(C#N)ccc2OC(C)(C)[C@H]1O` (relative stereo) had a melting point of 136 to 138 °C.

On to `CC(C)C1(c2ccccc2OCCCCBr)C(=O)N(C)c2ccccc21` (configuration not stated), for which the melting point was 98 to 100 °C.

`NC(=O)c1ncn2c1nc(N1CCOCC1)c1ccccc12` gave a melting point of more than 300 °C.

Compound `COc1ccc(NN=C(Sc2ccc(Cl)c(Cl)c2)C(C)=O)cc1` registered a melting point of 109 to 113 °C.

Consider `Nc1cc(CNc2ccccc2C(=O)Nc2cccc(C(F)(F)F)c2)ccn1`, for which the melting point came to 64 °C.

For the compound `CCOC(=O)c1cc(C)c(OCCCc2cc(C)no2)c(C)c1`, the melting point lay in the range of 49 to 50 °C.

Compound `N#CC(=O)c1ccccc1CF` registered a melting point of 41 °C.

With `CC(C)(C)C(=O)Oc1ccc(OC(=O)C(C)(C)C)c(C(=O)OCc2ccccc2)c1`, the melting point lay within 90.5 to 91.8 °C.

In turn, `CCOC(=O)c1cnc2[nH]c(=O)ccc2c1Nc1ccc(OC)cc1` displayed a melting point of 243 to 246 °C.

Turning to `CC1CC(N)=NN1c1cncc(Cl)n1` (configuration not stated), the melting point was in the range of 147 to 148 °C.

Regarding `Cn1cc(-c2cccc(C(F)(F)F)c2)c(=O)c(-n2cncn2)c1`, the melting point was 181 to 183 °C.

As to `CC(=O)C(=CN(C)C)c1ccccc1`, the melting point worked out at 66 °C.

Take `NCc1cccc(-c2ccc(Br)cc2)n1`: the melting point was 71 to 75 °C.

In the case of `COc1ccc(C2Nc3ccccc3C(=O)N2c2ccc(F)c(C(F)(F)F)c2)cn1` (configuration not stated), the melting point fell in the range of 167 to 168 °C.

The compound `NNC(=O)CCCSc1nccc(NC(N)=NCC(F)(F)F)n1` had a melting point of 192 to 195 °C.

On to `O=c1c(Br)c(N2CCC(c3ccccc3)CC2)ccn1CC1CC1`, for which the melting point was 150 °C.

`Cc1noc(NS(=O)(=O)c2nccs2)c1Cl` yielded a melting point of 171 to 173 °C.

As for `COc1cc(N)c(Cl)cc1C(=O)NCC1CCN(CCCCCNC(=O)c2ccc(Cl)cc2)CC1`, the melting point lay in the range of 196 to 198 °C.

As for `COC(=O)Nc1ccc(Br)cn1`, the melting point was 191 to 192 °C.

The compound `CCOC(=O)c1c2n(c3c(F)c(F)c(F)cc3c1=O)C(C)S2` (configuration not stated) showed a melting point of 206 to 210 °C.

With `Cc1cccc(CON2C(C)(C)CC(OC(=O)c3ccccc3)CC2(C)C)c1`, the melting point was 64 to 65 °C.

The compound `CN(C)CCCOc1ccc(-c2nnc(CSCCOc3ccccc3)n2Cc2ccccc2)cc1` yielded a melting point of 88 to 92 °C.

As for `CC#CCOc1ccc(SC(C(=O)NO)c2cccc3ccccc23)cc1` (configuration not stated), the melting point was determined as 140 °C.

The compound `O=CNC1=NN(c2ccc(Cl)cc2)C(c2ccccc2)C1` (configuration not stated) gave a melting point of 164 to 166 °C.

On to `COc1ccc(Cc2cc3cccc(-c4cccc(C(=O)NCCO)c4)c3s2)cn1`, for which the melting point was 138 to 139 °C.

For `O=C(O)CCOc1ccc2c(c1)CCO2`, the melting point was 131 to 132 °C.

The compound `Cc1cccc(C)c1NC(=S)N1CC(Oc2cccc(C(F)(F)F)c2)C1` came in with a melting point of 197 to 199 °C.

The compound `O=C(O)CCc1cnoc1-c1ccc(F)cc1` had a melting point of 126 to 127 °C.

Consider `CNC(=O)c1ccccc1Nc1nc(Nc2cc3c(cc2OC)CCN(CCOC)CC3)ncc1Cl`, for which the melting point lay in the range of 109 to 112 °C.

`O=C(O)CCCC(=O)S[C@@H]1CC(=O)N(Cc2ccc(Oc3ccc(F)cc3)nc2)C1` came in with a melting point of 132 to 133 °C.

As for `ON1Cc2ccccc2C1=S`, the melting point lay within 110 to 111 °C.

The compound `COCc1c(Cl)ccc(C(=O)c2cnoc2C2CC2)c1S(C)(=O)=O` yielded a melting point of 83.6 to 84.2 °C.

`COC(=O)c1cc(I)ccc1N(C)S(C)(=O)=O` showed a melting point of 105 to 106 °C.

As to `CC1(C)C(=O)C(C(=O)Cc2ccc(Cl)cc2)C(=O)C(C)(C)C1=O`, the melting point was in the range of 57 to 61 °C.

Consider `C[C@H]1C[C@@H](NC(=O)C(F)(F)F)CC(O)O1` (some centres not stated), for which the melting point fell in the range of 159 to 160 °C.

Compound `FC(F)(F)COc1ccc(OCc2ccccc2)cc1` had a melting point of 72 to 74 °C.

In turn, `CCCCCCCCn1c(C2=CC(=O)c3ccccc3C2=O)ccc1C1=CC(=O)c2ccccc2C1=O` gave a melting point of 75 to 76 °C.

These data come from a melting point compilation (Tetko et al.; mined from patent text by program, amines drawn as free bases though some values may be those of a salt).
